This passage reports GI50 and IC50 results from US20230131025A1, “QUINOLYL PHOSPHINE OXIDE COMPOUND, AND COMPOSITION AND APPLICATION THEREOF” (Betta Pharmaceuticals Co., Ltd., priority 2020, published 2023).

Molecules are shown by their SMILES.

For one test, the target named is Ba/F3-Δ19del/T790M/C797S (Homo sapiens, UniProt P00533, T790M/C797S, cells depend on it, form not given). Description: Cell proliferation experiment (CellTiter Glo, 72 hours). The class given is cell-based. The settings on record: read-out: Ba/F3/EGFR Δ19del/T790M/C797S IC50. Here is the method:
(§1) Experiment 2 Cell Proliferation Experiment
(§2) Suspension cells: Ba/F3 cells with stable overexpression of Δ19del/T790M/C797S mutant gene, named Ba/F3-Δ19del/T790M/C797S; Ba/F3 cells with overexpression of EGFR WT, named Ba/F3 EGFR WT.
(§3) RPMI 1640 with 10% FBS and 1% Penicillin-Streptomycin, or DMEM with 10% FBS and 1% Penicillin-Streptomycin.
(§4) a) Diluting compounds being tested (20 mM stock solutions), as an initial concentration, to 10 mM with 100% DMSO, followed by diluting compounds serially in a 3-fold gradient such that each compound is diluted into 12 concentrations (Cat #P-05525, Labcyte).
(§5) b) Diluting the above compound solutions for 100-fold with culture medium to prepare 10-fold working solution.
(§6) b) Seeding cells into 96-well cell culture plate at a density of 2000 or 3000 cells/well, with 135 μL/well.
(§7) a) Adding the compound prepared in step 2 to the cell plate at 15 μL per well, resulting in a final maximum concentration of 10000 nM or 1111 nM. The compounds is diluted serially in a 3-fold gradient such that each compound is diluted into 9 concentrations, wherein the final concentration of DMSO is 0.1%. Blank control wells are added with medium (0.1% DMSO).
(§8) b) Re-incubating the cells in an incubator for 72 hours. 5. Detection
(§9) a) Adding 50 μL of CTG reagent (CellTiter Glo kit, promega, Cat #G7573) to the 96-well cell culture plate.
(§10) b) Shaking the plate for 2 minutes and reacting at room temperature for 10 minutes.
(§11) c) Reading the luminescence signal value (Lum) using PerkinElmer reader.
(§12) The cell survival inhibition rate of each well was calculated. The data was analyzed by GraphPad Prism 6.0 software. The dose-response curve was obtained by fitting the data with a nonlinear regression equation. The IC50 of each compound was calculated as follows:
(§13) Cell survival inhibition rate (%)=(1−(Lumcompound tested−Lummedium control)/(Lumcell control−Lummedium control))×100%
(§14) Y=Min+(Max−Min)/(1+10^((Log IC50−X)*Slope));
(§15) X: logarithm of compound concentration. Y: cell survival inhibition rate.

In a further test the target is Ba/F3 EGFR WT (Homo sapiens, UniProt P00533). The description is as above. The class given is cell-based. To be noted: read-out: BaF3 EGFR WT IC50. Here is the method: as §1, §2, §3, §4, §5, §6, §7, §8, §9, §10, §11, §12, §13, §14, §15
Sequence of Ba/F3 EGFR WT (P00533 whole entry, change not shown): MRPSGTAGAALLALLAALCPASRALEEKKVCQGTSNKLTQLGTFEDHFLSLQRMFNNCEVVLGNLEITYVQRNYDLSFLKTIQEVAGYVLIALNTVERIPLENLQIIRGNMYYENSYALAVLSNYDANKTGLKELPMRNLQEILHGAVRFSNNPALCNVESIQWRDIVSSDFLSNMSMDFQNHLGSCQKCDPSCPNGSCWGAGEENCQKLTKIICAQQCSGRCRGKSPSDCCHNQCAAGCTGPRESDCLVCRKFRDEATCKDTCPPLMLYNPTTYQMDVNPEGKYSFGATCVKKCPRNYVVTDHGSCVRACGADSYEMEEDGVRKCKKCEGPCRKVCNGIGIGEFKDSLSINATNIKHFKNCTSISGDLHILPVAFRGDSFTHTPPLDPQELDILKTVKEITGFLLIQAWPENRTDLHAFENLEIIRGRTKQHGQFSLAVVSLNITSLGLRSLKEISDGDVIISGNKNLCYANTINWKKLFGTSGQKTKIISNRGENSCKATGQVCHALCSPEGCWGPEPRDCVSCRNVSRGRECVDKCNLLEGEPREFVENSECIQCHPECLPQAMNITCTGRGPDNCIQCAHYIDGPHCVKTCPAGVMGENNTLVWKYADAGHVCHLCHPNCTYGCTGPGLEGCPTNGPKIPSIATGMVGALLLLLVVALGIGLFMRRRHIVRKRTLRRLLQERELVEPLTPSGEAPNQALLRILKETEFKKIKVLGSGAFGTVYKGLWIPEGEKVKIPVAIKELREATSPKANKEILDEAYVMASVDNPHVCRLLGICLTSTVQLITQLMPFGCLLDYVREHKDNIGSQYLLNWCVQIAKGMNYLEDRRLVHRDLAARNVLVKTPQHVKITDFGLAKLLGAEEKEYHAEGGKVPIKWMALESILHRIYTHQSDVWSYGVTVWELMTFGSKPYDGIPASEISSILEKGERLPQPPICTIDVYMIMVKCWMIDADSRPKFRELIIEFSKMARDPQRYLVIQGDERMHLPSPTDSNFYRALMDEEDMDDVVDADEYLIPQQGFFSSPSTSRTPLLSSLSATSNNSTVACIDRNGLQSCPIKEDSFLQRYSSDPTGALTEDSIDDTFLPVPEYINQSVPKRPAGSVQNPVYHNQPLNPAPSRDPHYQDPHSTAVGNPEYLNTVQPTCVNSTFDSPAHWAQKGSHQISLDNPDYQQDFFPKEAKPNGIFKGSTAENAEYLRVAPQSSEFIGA
Test [1] concerns human epidermal cancer cells A431 carrying EGFR WT. Described as above. To be noted: Homo sapiens, A-431. The format is cell-based. Here is the method:
as §1
Adherent cells: human epidermal cancer cells A431 carrying EGFR WT.
as §3, §4, §5, §6, §7, §8, §9, §10, §11, §12, §13, §14, §15

In another test the target is IGF1R (Homo sapiens, UniProt P08069). Description: Kinase inhibition assay (mobility shift). The format is biochemical. As to the method:
(§16) Experiment 1 Kinase Inhibition Assay Mobility shift assays were performed to determine inhibitory activity of compounds against EGFR^Δ19del/T790M/C797S, EGFR WT and IGF1R kinases. The enzymatic reaction scheme is as follows:
(§17) 1. Preparing 1*Kinase Buffer as follows:
(§18) 2. Preparing compound concentration gradient: the initial concentration of the compound tested in the assay was 3,000 nM or 100 nM, which is then diluted to be 100-fold final concentration in 100% DMSO in a 384-source plate. Compounds in 10 concentrations were diluted in a 3-fold gradient with Precision. 250 nL of compound in 100-fold final concentration was transferred to OptiPlate-384F plate by using a dispenser named Echo 550.
(§19) 3. Preparing kinase solution at 2.5-fold the final concentration with 1×kinase buffer.
(§20) 4. Adding 10 μL of kinase solution at 2.5-fold the final concentration to compound wells and positive control wells respectively; and adding 10 μL of 1×kinase buffer to negative control wells.
(§21) 5. Centrifuging the wells at 1,000 rpm for 30 seconds, mixing the reaction plate well by shaking and incubating it at room temperature for 10 minutes.
(§22) 6. Preparing a mixed solution of ATP and kinase substrate at 5-fold/3-fold the final concentration with 1×Kinase buffer, respectively.
(§23) 7. Initiating the reaction by adding 15 μL of the mixed solution of ATP and kinase substrate at 5-fold/3-fold the final concentration.
(§24) 8. Centrifuging the 384-well plate at 1,000 rpm for 30 seconds, mixing the reaction plate well by shaking and incubating it at room temperature for a corresponding time.
(§25) 9. Adding 30 μL of assay stop solution to stop the kinase reaction, and centrifuging the plate at 1,000 rpm for 30 seconds and mixing it well by shaking.
(§26) 10. Reading the conversion rate with Caliper EZ Reader.
(§27) [formula] • wherein, “Conversion % sample” is the conversion rate reading of the sample;
(§28) “Conversion %_min” is the mean value of the negative control wells, representing the conversion rate readings of the well without enzymatic activity; “Conversion %_max” is the mean value of the positive control wells, representing the conversion rate readings of the wells without compound inhibition. • Dose-response curve is plotted with the logarithmic concentration on the X-axis and percent inhibition on the Y-axis. The fitting of the dose-response curve is made with the module “log(inhibitor) vs. response—Variable slope” of the analysis software GraphPad Prism 5, so that the IC50 value of each compound on enzymatic activity is obtained. • The calculation formula is: Y=Bottom+(Top−Bottom)/(1+10^((Log IC50−X)*HillSlope)).

The target of a further test is EGFR WT (Homo sapiens, UniProt P00533). Description: Kinase inhibition assay (mobility shift). The format is biochemical. Here is the method: as §16, §17, §18, §19, §20, §21, §22, §23, §24, §25, §26, §27, §28
Sequence of EGFR WT (P00533 25-1210): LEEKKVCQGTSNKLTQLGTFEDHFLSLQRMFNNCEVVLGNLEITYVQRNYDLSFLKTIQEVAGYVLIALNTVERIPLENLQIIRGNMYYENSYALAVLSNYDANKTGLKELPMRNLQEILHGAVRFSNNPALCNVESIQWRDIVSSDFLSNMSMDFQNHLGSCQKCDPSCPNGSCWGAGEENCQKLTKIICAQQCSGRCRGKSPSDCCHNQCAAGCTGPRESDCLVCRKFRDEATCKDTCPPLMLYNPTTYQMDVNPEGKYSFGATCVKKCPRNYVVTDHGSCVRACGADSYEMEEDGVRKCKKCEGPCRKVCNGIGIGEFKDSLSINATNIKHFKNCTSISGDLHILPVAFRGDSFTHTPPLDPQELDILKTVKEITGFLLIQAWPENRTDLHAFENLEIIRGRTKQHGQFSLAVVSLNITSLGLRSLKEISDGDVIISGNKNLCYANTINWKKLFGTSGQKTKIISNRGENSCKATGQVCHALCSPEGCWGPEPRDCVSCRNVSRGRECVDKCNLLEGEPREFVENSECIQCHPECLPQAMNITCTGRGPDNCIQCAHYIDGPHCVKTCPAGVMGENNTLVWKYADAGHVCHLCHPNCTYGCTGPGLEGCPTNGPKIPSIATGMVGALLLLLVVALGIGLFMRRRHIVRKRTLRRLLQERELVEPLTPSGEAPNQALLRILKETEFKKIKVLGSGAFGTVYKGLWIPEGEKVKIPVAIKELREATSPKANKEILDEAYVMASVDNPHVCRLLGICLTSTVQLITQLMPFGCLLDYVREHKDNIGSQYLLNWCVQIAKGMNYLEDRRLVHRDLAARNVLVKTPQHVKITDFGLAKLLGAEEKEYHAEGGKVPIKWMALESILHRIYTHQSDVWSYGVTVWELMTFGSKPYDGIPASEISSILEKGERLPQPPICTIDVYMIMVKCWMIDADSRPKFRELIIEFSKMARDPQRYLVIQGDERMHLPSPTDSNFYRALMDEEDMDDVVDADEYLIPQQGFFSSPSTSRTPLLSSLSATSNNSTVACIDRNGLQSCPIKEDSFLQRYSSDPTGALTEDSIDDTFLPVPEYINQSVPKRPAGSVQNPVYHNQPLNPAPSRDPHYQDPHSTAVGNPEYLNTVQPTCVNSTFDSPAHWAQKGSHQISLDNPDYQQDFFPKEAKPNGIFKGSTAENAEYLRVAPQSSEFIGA
In another test the target is EGFR Δ19del/T790M/C797S (Homo sapiens, UniProt P00533, T790M/C797S, form not given). In words: Kinase inhibition assay (mobility shift). The class given is biochemical. As to the method: as §16, §17, §18, §19, §20, §21, §22, §23, §24, §25, §26, §27, §28

Sequence of IGF1R (P08069 31-1367, species assumed): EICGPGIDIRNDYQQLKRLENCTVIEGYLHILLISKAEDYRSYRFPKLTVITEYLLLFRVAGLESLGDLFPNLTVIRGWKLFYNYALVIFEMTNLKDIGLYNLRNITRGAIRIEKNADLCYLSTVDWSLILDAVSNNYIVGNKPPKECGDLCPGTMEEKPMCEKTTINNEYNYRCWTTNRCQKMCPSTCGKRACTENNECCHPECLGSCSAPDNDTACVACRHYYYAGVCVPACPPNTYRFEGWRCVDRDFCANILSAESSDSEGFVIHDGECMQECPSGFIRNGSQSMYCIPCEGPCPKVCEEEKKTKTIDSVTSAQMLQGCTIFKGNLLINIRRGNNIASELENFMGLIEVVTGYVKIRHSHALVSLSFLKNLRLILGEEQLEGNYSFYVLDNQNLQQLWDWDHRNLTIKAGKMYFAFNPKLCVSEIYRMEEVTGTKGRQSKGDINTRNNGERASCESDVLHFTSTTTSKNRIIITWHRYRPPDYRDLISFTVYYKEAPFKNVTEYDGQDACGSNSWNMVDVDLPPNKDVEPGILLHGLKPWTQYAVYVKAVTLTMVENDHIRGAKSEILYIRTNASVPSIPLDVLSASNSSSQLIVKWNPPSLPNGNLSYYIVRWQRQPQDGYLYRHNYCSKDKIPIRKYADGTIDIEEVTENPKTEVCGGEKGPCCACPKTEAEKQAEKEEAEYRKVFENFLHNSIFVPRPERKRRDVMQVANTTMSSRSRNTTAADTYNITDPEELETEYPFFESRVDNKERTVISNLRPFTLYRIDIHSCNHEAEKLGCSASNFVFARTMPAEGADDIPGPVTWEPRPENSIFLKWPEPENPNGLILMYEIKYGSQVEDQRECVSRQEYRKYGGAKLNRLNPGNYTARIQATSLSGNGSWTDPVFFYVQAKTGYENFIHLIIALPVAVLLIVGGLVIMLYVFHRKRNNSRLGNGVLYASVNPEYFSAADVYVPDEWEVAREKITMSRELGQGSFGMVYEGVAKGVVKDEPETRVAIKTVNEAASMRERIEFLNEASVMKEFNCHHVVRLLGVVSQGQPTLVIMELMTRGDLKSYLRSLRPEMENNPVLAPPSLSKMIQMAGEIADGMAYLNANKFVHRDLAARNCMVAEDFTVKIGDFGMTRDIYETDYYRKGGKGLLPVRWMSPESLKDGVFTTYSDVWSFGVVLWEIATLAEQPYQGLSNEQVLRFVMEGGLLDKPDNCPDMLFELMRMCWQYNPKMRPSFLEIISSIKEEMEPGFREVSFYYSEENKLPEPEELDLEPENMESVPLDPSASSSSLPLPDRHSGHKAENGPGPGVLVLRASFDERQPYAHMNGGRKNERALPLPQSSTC
Sequence of Ba/F3-Δ19del/T790M/C797S (P00533 with tags, fused parts or gaps DEL746-750/T790M/C797S, form open): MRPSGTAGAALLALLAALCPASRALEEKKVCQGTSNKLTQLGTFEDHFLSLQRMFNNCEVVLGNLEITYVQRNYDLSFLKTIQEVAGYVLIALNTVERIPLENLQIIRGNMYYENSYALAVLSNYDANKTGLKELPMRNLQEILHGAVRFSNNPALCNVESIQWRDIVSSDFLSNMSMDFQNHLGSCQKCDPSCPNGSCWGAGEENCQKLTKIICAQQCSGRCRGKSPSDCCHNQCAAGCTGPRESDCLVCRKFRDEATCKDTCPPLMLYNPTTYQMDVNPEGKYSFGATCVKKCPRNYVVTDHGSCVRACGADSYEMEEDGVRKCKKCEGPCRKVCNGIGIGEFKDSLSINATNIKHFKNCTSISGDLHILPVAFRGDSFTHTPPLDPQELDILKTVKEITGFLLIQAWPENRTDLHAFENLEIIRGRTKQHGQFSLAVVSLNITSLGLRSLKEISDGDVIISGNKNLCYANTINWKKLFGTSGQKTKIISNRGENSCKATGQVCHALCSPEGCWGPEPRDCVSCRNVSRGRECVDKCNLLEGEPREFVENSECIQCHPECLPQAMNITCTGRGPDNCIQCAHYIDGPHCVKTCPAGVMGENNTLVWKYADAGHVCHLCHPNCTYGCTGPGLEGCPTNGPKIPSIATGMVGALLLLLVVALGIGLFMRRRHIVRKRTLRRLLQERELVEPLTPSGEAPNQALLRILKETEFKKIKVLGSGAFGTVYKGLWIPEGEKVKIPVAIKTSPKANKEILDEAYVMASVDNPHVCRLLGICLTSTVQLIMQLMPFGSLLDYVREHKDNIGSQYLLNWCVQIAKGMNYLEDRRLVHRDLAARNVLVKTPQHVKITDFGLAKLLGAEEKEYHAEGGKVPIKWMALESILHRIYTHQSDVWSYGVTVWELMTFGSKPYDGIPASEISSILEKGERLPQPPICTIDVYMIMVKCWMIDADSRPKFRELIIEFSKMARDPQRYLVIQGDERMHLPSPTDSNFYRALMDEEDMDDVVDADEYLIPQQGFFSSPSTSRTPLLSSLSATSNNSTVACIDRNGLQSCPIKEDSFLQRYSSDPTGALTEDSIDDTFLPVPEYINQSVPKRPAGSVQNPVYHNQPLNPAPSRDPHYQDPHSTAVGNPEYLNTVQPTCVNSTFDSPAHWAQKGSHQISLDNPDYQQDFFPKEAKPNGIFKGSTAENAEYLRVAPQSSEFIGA

On to `COc1cc(Nc2ncc(Br)c(Nc3ccc4nc(C5CC5)ccc4c3P(C)(C)=O)n2)c(C)cc1N1CCOCC1` [Compound J-001, (6-((5-Bromo-2-((5-methoxy-2-methyl-4-morpholinylphenyl)amino)pyrimidin-4-yl)amino)-2-cyclopropylquinoline-5-yl)dimethylphosphine oxide], for which the results for the GI50 at Ba/F3-Δ19del/T790M/C797S and on Ba/F3 EGFR WT were 26.5 nM and 396 nM, respectively. In addition, the IC50 in test [1] was determined as 1350 nM; at IGF1R, 63.6 nM; at EGFR WT, 51.7 nM; at EGFR Δ19del/T790M/C797S, 0.5 nM.
Regarding `CCc1cc(N2CCOCC2)c(OC)cc1Nc1ncc(Br)c(Nc2ccc3nc(C4CC4)ccc3c2P(C)(C)=O)n1` [Compound J-003, (6-((5-Bromo-2-((2-ethyl-5-methoxy-4-morpholinylphenyl)amino)pyrimidin-4-yl)amino)-2-cyclopropylquinoline-5-yl)dimethylphosphine oxide], the results for the GI50 on Ba/F3-Δ19del/T790M/C797S and on Ba/F3 EGFR WT were 25.7 nM and 646 nM, respectively. In addition, the IC50 came out at 3040 nM in test [1], 189 nM at IGF1R, 172 nM at EGFR WT and 0.5 nM at EGFR Δ19del/T790M/C797S.
Consider `COc1cc(Nc2ncc(Br)c(Nc3ccc4nc(C5CC5)ccc4c3P(C)(C)=O)n2)c(C(C)C)cc1N1CCOCC1` [Compound J-005, (6-((5-Bromo-2-((2-isopropyl-5-methoxy-4-morpholinylphenyl)amino)pyrimidin-4-yl)amino)-2-cyclopropylquinoline-5-yl)dimethylphosphine oxide], for which the GI50 was determined as 27 nM on Ba/F3-Δ19del/T790M/C797S and 698 nM at Ba/F3 EGFR WT. Also, the half-maximal inhibitory concentration (IC50) in test [1] worked out at 6140 nM; on IGF1R it was 74.4 nM; on EGFR WT, 132 nM; at EGFR Δ19del/T790M/C797S it was 0.5 nM.
On to `COc1cc(Nc2ncc(Br)c(Nc3ccc4nc(-c5cnn(C)c5)ccc4c3P(C)(C)=O)n2)c(C)cc1N1CCOCC1` [Compound J-007, (6-((5-Bromo-2-((5-methoxy-2-methyl-4-morpholinylphenyl)amino)pyrimidin-4-yl)amino)-2-(1-methyl-1H-pyrazol-4-yl)quinolin-5-yl)dimethylphosphine oxide], for which the GI50 is 6 nM at Ba/F3-Δ19del/T790M/C797S and 147 nM at Ba/F3 EGFR WT. The half-inhibitory concentration (IC50) in test [1] turned out to be 1030 nM; on IGF1R it was 41 nM; on EGFR WT, 30.3 nM; at EGFR Δ19del/T790M/C797S, 0.2 nM.
`COc1cc(Nc2ncc(Br)c(Nc3ccc4nc(C5CC5)ccc4c3P(C)(C)=O)n2)c(C)cc1N1CCC(N(C)C)CC1` [Compound J-009, (6-((5-Bromo-2-((4-(4-(dimethylamino)piperidin-1-yl)-5-methoxy-2-methylphenyl)amino)pyrimidine-4-yl)amino)-2-cyclopropylquinolin-5-yl)dimethylphosphine oxide]: the GI50 turned out to be 16.3 nM at Ba/F3-Δ19del/T790M/C797S and 168 nM at Ba/F3 EGFR WT. In addition, the IC50 in test [1] came to 384 nM; at IGF1R, 14.8 nM; on EGFR WT it was 14.4 nM; at EGFR Δ19del/T790M/C797S it was 0.3 nM.
As to `COc1cc(N2CCC(N3CCN(C)CC3)CC2)c(F)cc1Nc1ncc(Br)c(Nc2ccc3nc(C4CC4)ccc3c2P(C)(C)=O)n1` [Compound J-019, (6-((5-Bromo-2-((5-fluoro-2-methoxy-4-(4-(4-methylpiperazin-1-yl)piperidin-1-yl)phenyl)amino)pyrimidin-4-yl)amino)-2-cyclopropylquinolin-5-yl)dimethylphosphine oxide], the IC50 at IGF1R was found to be 222 nM; on EGFR WT it was 16 nM; on EGFR Δ19del/T790M/C797S, 0.33 nM.
For `COc1cc(Nc2ncc(Br)c(Nc3ccc4nc(C5CC5)ccc4c3P(C)(C)=O)n2)c(C#N)cc1N1CCC(N2CCN(C)CC2)CC1` [Compound J-025, 2-((5-Bromo-4-((2-cyclopropyl-5-(dimethylphosphineoxide)quinolin-6-yl)amino)pyrimidin-2-yl)amino)-4-methoxy-5-(4-(4-methylpiperazin-1-yl)piperidin-1-yl)benzonitrile], in that order: over 3000 nM, 2310 nM and 43 nM.
For `COc1cc(Nc2ncc(Br)c(Nc3ccc4nc(C5CC5)ccc4c3P(C)(C)=O)n2)c(C2CCOCC2)cc1N1CCC(N2CCN(C)CC2)CC1` [Compound J-026, (6-((5-Bromo-2-((5-methoxy-4-(4-(4-methylpiperazin-1-yl)piperidin-1-yl)-2-(tetrahydro-2H-pyran-4-yl)phenyl)amino)pyrimidin-4-yl)amino)-2-cyclopropylquinolin-5-yl)dimethylphosphine oxide], the concentration for half-maximal inhibition (IC50) on IGF1R was over 3000 nM; at EGFR WT, over 3000 nM; at EGFR Δ19del/T790M/C797S, 36 nM.
As to `CCc1cc(N2CCC(N3CCN(C)CC3)CC2)c(OC)cc1Nc1ncc(Br)c(Nc2ccc3nc(C4CC4)ccc3c2P(C)(C)=O)n1` [Compound J-031, (6-((5-Bromo-2-((2-ethyl-5-methoxy-4-(4-(4-methylpiperazin-1-yl)piperidin-1-yl)phenyl)amino)pyrimidin-4-yl)amino)-2-cyclopropylquinolin-5-yl)dimethylphosphine oxide], the IC50 on IGF1R stood at 103 nM; on EGFR WT it was 64 nM; at EGFR Δ19del/T790M/C797S, 0.5 nM.
The like results for `COc1cc(N2CCN(C3CCCC3)CC2)c(C)cc1Nc1ncc(Br)c(Nc2ccc3nc(C4CC4)ccc3c2P(C)(C)=O)n1` [Compound J-032, (6-((5-Bromo-2-((4-(4-cyclopentylpiperazin-1-yl)-2-methoxy-5-methylphenyl)amino)pyrimidin-4-yl)amino)-2-cyclopropylquinolin-5-yl)dimethylphosphine oxide] were, in that order, 170 nM, 121 nM and 1 nM.
For `COc1cc(N2CCN(C3CC3)CC2)c(C)cc1Nc1ncc(Br)c(Nc2ccc3nc(C4CC4)ccc3c2P(C)(C)=O)n1` [Compound J-038, (6-((5-Bromo-2-((4-(4-cyclopropylpiperazin-1-yl)-2-methoxy-5-methylphenyl)amino)pyrimidin-4-yl)amino)-2-cyclopropylquinolin-5-yl)dimethylphosphine oxide], in that order: 586 nM, 171 nM and 0.9 nM.
With `COc1cc(-c2ccc(N3CCN(C)CC3)cc2)c(C)cc1Nc1ncc(Br)c(Nc2ccc3nc(C4CC4)ccc3c2P(C)(C)=O)n1` [Compound J-040, (6-((5-Bromo-2-((5-methoxy-2-methyl-4′-(4-methylpiperazin-1-yl)-[1,1′-biphenyl]-4-yl)amino)pyrimidin-4-yl)amino)-2-cyclopropylquinolin-5-yl)dimethylphosphine oxide], the IC50 on IGF1R came to 1160 nM; on EGFR WT, 550 nM; at EGFR Δ19del/T790M/C797S, 6 nM.
